Where no end group is shown, it is not given here.
Experiments:
hMPV [1] = details: background statement; cited from earlier work
[2] = Uninfected (sham infected) mice treated for 5 days, check for toxic and non specific effects; type: in vivo, BALB/c mice; details: 500 μM
Procedure: In the second protocol, groups of 18 4-6-week-old BALB/c mice (Charles River Laboratories) were infected intranasally with 6-8×10^5 TCID50 hMPV strain C-85473 in 25 μl of OptiMEM™ supplemented with the PAR-1 agonist, PAR-1 antagonist or control peptide at a final concentration of 500 μM. As infected controls, groups of 18 4-6-week-old BALB/c mice (Charles River Laboratories) were infected intranasally with 6-8×10^5 TCID50 hMPV strain C-85473 in 25 μl of OptiMEM™ supplemented with H2O or DMSO. As uninfected control, groups 18 mice were sham infected with the concentrated supernatant of non-infected LLC-MK2 cells supplemented with the PAR-1 agonist, PAR-1 antagonist or control peptide at a final concentration of 500 μM or DMSO. On day 1 through 4 post infection, animals were treated with the PAR-1 agonist, PAR-1 antagonist or control peptide at a final concentration of 50 μM or 500 μM, or H2O or DMSO for control groups, resulting in a 5-day treatment in total. Animals were housed in groups of five and three in micro-isolator cages. The animals were evaluated on a daily basis for mortality, weight loss, and the presence of symptoms. On day 5 post-infection, lungs were removed from six mice per group for the evaluation of viral titres by cell culture and cytokine expression by Iuminex™. […]
(§1) 250 μL of lung homogenates (see section “Pulmonary viral titers”) were added to 250 μl 50 mM KPO4, pH 6.0 buffer containing 0.2% CHAPS {3-[(3-cholamidopropyl)-dimethylammonio]1-1-propanesulfonate} (Sigma) and 0.2% of a protease inhibitor cocktail (Sigma) and stored at −20° C. until the day of analysis. Samples were centrifuged at 13,800×g for 10 min at 4° C., and 50 μl of the supernatant was used for cytokine quantification. Levels of interleukin-4, IL-6, IL-12(p40), IL-12(p70), IFN-γ, KC, MCP-1, MIP-1α, RANTES were determined by the use of a 9-plex mouse bead kits (BioRad™/Millipore™) according to the manufacturer's instructions. Experiments were performed in a 96-well filter plate and results were analysed with the Luminex™ system (Qiagen™).

hMPV strain C-85473 [3] = assay: hMPV-infected BALB/c mice, three-day prophylactic treatment regimen (experiment 1); type: in vivo; details: 3-day treatment; for mice that reached the humane endpoint: none in the untreated group; for pulmonary viral titers: day 5 post hMPV infection, vs diluted DMSO or H2O treated mice; for pulmonary viral titers / cytokine expression in the lungs: 50 or 500 μM; for cytokine expression in the lungs: day 5 post infection, Luminex; for weight loss: hMPV-infected mice, 50 or 500 μM intranasal, vs infected untreated mice (H2O or DMSO), followed 14 days
Procedure: (§2) hMPV viral titers were determined by 10-fold serial dilutions of virus in 24-well plates containing LLC-MK2 cells. Before infection, cells were washed twice with phosphate-buffered saline (PBS) to remove residual serum proteins that could inhibit trypsin activity. Infected plates were incubated at 37° C. with 5% CO2 and replenished with 1 μl of fresh trypsin (0.0002%) every other day. hRSV viral titers were determined by 10-fold serial dilutions of virus in 24-well plates containing Hep2 cells. Before infection, cells were washed twice with phosphate-buffered saline (PBS). Infected plates were incubated at 37° C. with 5% CO2. On day 4 post infection, plates were fixed with 80% acetone at −20° C. for 30 min, washed with PBS and air dried. The presence of hRSV was detected by an immuno-staining assay using a monoclonal goat Anti-Respiratory Syncytial Virus primary antibody and a donkey anti-Goat IgG Secondary Antibody, HRP conjugate (both from Cederlane). Virus titers were reported as 50% tissue culture infectious doses (TCID50) per ml, per mouse or per gram of lung. The lower limit of detection of the assay is 10^2 TCID50 per gram. TCID50 were calculated by the Reed and Muench method.
In the first protocol, groups of 12 4-6-week-old female BALB/c mice (Charles River Laboratories) were infected intranasally with 4-7×10^5 TCID50 hMPV strain C-85473 in 25 μl of OptiMEM™ supplemented with the PAR-1 or PAR-1 antagonist at a final concentration of 50 μM or 500 μM. As infected controls, groups of 12 4-6-week-old BALB/c mice (Charles River Laboratories) were infected intranasally with 4-7×10^5 TCID50 hMPV strain C-85473 in 25 μl of OptiMEM™ supplemented with H2O or DMSO. As an uninfected control, 12 mice were sham infected with the concentrated supernatant of non-infected LLC-MK2 cells supplemented with DMSO. On day 1 and 2 post infection, animals were treated with the PAR-1 agonist or PAR-1 antagonist at a final concentration of 50 μM or 500 μM, or H2O or DMSO for control groups, resulting in a 3-day treatment in total. All animals were housed in groups of four in micro-isolator cages. The animals were evaluated on a daily basis for mortality, weight loss, and the presence of symptoms. On day 5 post-infection, lungs were removed from six mice per group for the evaluation of viral titres by cell culture and cytokine expression by Luminex™.
(§3) On day 5 post infection, six animals per group were sacrificed, the lungs were removed and snap frozen in liquid nitrogen. Lungs were weighed, homogenized in 1 ml of PBS, centrifuged (2000 rpm, 10 min) and the supernatant was used to infect LLC-MK2 monolayers (in case of hMPV-infected mice) or Hep2 monolayer (in case of hRSV-infected mice) for virus titration as reported in the section “Viral titers”.
as §1
(§4) Differences in weight loss between groups was analysed by repeated measures two-way ANOVA. Viral titers, cytokine levels and mean histopathology scores were analysed using student t-test.

hMPV strain C-85473 [4] = assay: hMPV-infected BALB/c mice, five-day treatment started simultaneously or 24 h post infection (experiment 3); type: in vivo; details: 500 μM
Procedure: as §2
In a third protocol, Two groups of 12 4-6-week-old BALB/c mice (Charles River Laboratories) were infected intranasally with 6×105 TCID50 hMPV strain C-85473 in 25 μl of OptiMEM™, supplemented with the PAR-1 agonist or PAR-1 antagonist at a final concentration of 500 μM and treated on days 1 through 4 post infection with the PAR-1 agonist or PAR-1 antagonist (500 μM). Two more groups of 4-6-week-old BALB/c mice (Charles River Laboratories) were infected intranasally with 6×105 TCID50 hMPV strain C-85473 in 25 μl of OptiMEM™. These groups were treated from day 1 though 5 post infection (treatment delayed 24 h post-infection) with the PAR-1 agonist or PAR-1 antagonist (500 μM). As infected controls, groups of 12 4-6-week-old BALB/c mice (Charles River Laboratories) were infected intranasally with 4×105 TCID50 hMPV strain C-85473 in 25 μl of OptiMEM supplemented with DMSO. All animals were housed in groups of four in micro-isolator cages. The animals were evaluated on a daily basis for mortality, weight loss, and the presence of symptoms. On day 5 post-infection, lungs were removed from six mice per group for the evaluation of viral titres by cell culture
as §3, §4

hMPV strain C-85473 [5] = assay: hMPV-infected BALB/c mice, five-day pre-exposure prophylactic treatment regimen (experiment 2); type: in vivo; details: 500 μM, 5-day treatment; for pulmonary inflammation (histopathology): infected treated vs infected untreated mice; for pulmonary viral titers: vs other infected groups; for weight loss (and symptoms): hMPV-infected mice, vs infected untreated mice
Procedure: as §2
In the second protocol, groups of 18 4-6-week-old BALB/c mice (Charles River Laboratories) were infected intranasally with 6-8×10^5 TCID50 hMPV strain C-85473 in 25 μl of OptiMEM™ supplemented with the PAR-1 agonist, PAR-1 antagonist or control peptide at a final concentration of 500 μM. As infected controls, groups of 18 4-6-week-old BALB/c mice (Charles River Laboratories) were infected intranasally with 6-8×10^5 TCID50 hMPV strain C-85473 in 25 μl of OptiMEM™ supplemented with H2O or DMSO. As uninfected control, groups 18 mice were sham infected with the concentrated supernatant of non-infected LLC-MK2 cells supplemented with the PAR-1 agonist, PAR-1 antagonist or control peptide at a final concentration of 500 μM or DMSO. On day 1 through 4 post infection, animals were treated with the PAR-1 agonist, PAR-1 antagonist or control peptide at a final concentration of 50 μM or 500 μM, or H2O or DMSO for control groups, resulting in a 5-day treatment in total. Animals were housed in groups of five and three in micro-isolator cages. The animals were evaluated on a daily basis for mortality, weight loss, and the presence of symptoms. On day 5 post-infection, lungs were removed from six mice per group for the evaluation of viral titres by cell culture and cytokine expression by Iuminex™. Lungs of another six mice per group were removed for histopathological analysis.
as §3, §1
On day 5 post infection, 6 animals per group were sacrificed, and the lungs were collected at specified time points and fixed with 4% buffered formalin. […]

hMPV [6] = details: background statement; cited from earlier work; remark: listed apart in the source
hMPV [7] = details: background statement; cited from earlier work; remark: listed apart in the source
hRSV strain 15 595 = assay: hRSV Balb/C mouse model, five-day treatment (experiment 4); type: in vivo; details: day 5 post hRSV infection, 500 μM, 5-day treatment, vs untreated and PAR-1 agonist treated mice
Procedure: The clinical hRSV A strain 15 959 that was passed nine times on Hep2 cells, was grown on Hep2 cells in MEM™ (Life Technologies) supplemented with 2% FBS (Wisent). Hep2 cells were infected with 10 TCID50/Hep2 cell of hRSV 15 959 and plated out into one flask (150 cm^2) until 60% cytopathic effects were observed. Infected monolayers and supernatants were recovered with a cell scraper and sonicated. The pooled preparation was centrifuged (1200 r.p.m., 10 min) to remove cellular debris. Supernatant was aliquoted and stored at −80° C. The same protocol was followed for a flask of uninfected cells for control mice.
hMPV viral titers were determined by 10-fold serial dilutions of virus in 24-well plates containing LLC-MK2 cells. […] Infected plates were incubated at 37° C. with 5% CO2 and replenished with 1 μl of fresh trypsin (0.0002%) every other day. hRSV viral titers were determined by 10-fold serial dilutions of virus in 24-well plates containing Hep2 cells. […] The presence of hRSV was detected by an immuno-staining assay using a monoclonal goat Anti-Respiratory Syncytial Virus primary antibody and a donkey anti-Goat IgG Secondary Antibody, HRP conjugate (both from Cederlane). […] TCID50 were calculated by the Reed and Muench method. […]
Differences in weight loss between groups was analysed by repeated measures two-way ANOVA. […]

[8] = 5-day prophylactic treatment started simultaneously with infection, vs infected/untreated group (FIG. 12)
[9] = 5-day treatment started 24 h post infection, vs infected/untreated mice (FIG. 13)

Row | Molecule | effect in hMPV-infected mice (hMPV [1]) | weight loss or symptoms in uninfected mice [2] | pulmonary viral titers (hMPV strain C-85473 [3]) | cytokine expression in the lungs (hMPV strain C-85473 [3]) | weight loss (hMPV strain C-85473 [3]) | weight loss (hMPV strain C-85473 [4]; [8]) | weight loss (hMPV strain C-85473 [4]; [9]) | pulmonary inflammation (histopathology) (hMPV strain C-85473 [5]; day 5 post hMPV infection) | pulmonary viral titers (hMPV strain C-85473 [5]; day 5 post infection) | weight loss (and symptoms) (hMPV strain C-85473 [5]) | further results
1 | C[C@]12C[C@H](O)[C@H]3[C@@H](CCC4=CC(=O)CC[C@@]43C)[C@@H]1CC[C@@H]2C(=O)CO [corticosterone] | minimal benefit |  |  |  |  |  |  |  |  |  | 
2 | TFLLR-NH2 [PAR-1 agonist] |  | In none of the uninfected groups significant weight loss or symptoms were observed | No significant difference | dose-dependent increases in IL-6, IL-12(p40) and MCP-1 | dose-dependent increase in weight loss | regained weight less rapidly than the control | regained their weight more slowly than infected/untreated mice | No significant difference | No significant difference | no significant difference in weight loss | mice that reached the humane endpoint (hMPV strain C-85473 [3]; 50 μM): One out of 6; difference in weight loss vs infected untreated mice (hMPV strain C-85473 [3]; 500 μM): significant on days 5 through 7; mice that reached the humane endpoint (hMPV strain C-85473 [3]; 500 μM): 3 out of 6; weight loss (hMPV strain C-85473 [4]; 5-day treatment started 24 h post infection, vs infected/untreated mice (FIG. 13), listed as PAR1 agonist): more weight loss than infected/untreated mice; pulmonary viral titers, treatment started simultaneously vs 24 h post infection (hMPV strain C-85473 [4]; day 5 post infection): No significant difference; lung histopathological inflammation criteria compared to uninfected, untreated mice (hMPV strain C-85473 [5]; day 5 post hMPV infection): increases in all but one (peribronchial) inflammation criteria; pulmonary cytokine/chemokine levels compared to infected mice treated with H2O (hMPV strain C-85473 [5]; day 5 post infection, Luminex): increased levels of IL-4, IL-12(p40) and MCP-1; pulmonary cytokine/chemokine levels compared to mice treated with the control peptide (hMPV strain C-85473 [5]; day 5 post infection, Luminex): increased levels of IL-4, KC, MCP-1 and MIP-1α
3 | NC(=O)c1ncn([C@@H]2O[C@H](CO)[C@@H](O)[C@H]2O)n1 [Ribavirin] | effective |  |  |  |  |  |  |  |  |  | effect in a lung transplant recipient with hMPV pneumonia (hMPV [6]): effective; in vitro activity against hMPV (hMPV [7]): good in vitro activity
4 | FTLLR-NH2 [control peptide, FTLLR-NH2] |  | In none of the uninfected groups significant weight loss or symptoms were observed |  |  |  |  |  |  |  |  | 
5 | CC(C)c1ccc(Cn2ccc3c4c(N)nc(NC5CC5)nc4ccc32)cc1 [PAR-1 antagonist, N3-cyclopropyl-7-{[4(I-methylethyl)phenyl]methyl)-7H-pyrrolo[3,2-f]quinazoline-I,3-diamine] |  | In none of the uninfected groups significant weight loss or symptoms were observed | significant (though not dose-dependent) reduction | no significant difference in cytokine expression | dose dependent reduction in weight loss | significant reduced weight loss | lost less weight than infected/untreated mice and weight loss started at a later time point | no pulmonary inflammation was observed | reduced pulmonary viral titers | abolished all weight loss and symptoms | lung viral titers (hRSV strain 15 595): significantly reduced viral titers; weight loss (hMPV strain C-85473 [4]; 5-day treatment started 24 h post infection, vs infected/untreated mice (FIG. 13), listed as PAR1 antagonists): started losing weight later and lost less weight than untreated infected mice, although the difference was not found to be statistically significant; pulmonary viral titers (hMPV strain C-85473 [4]; day 5 post infection, treatment simultaneous or started 24 h post infection, vs infected/untreated): reduction in pulmonary viral titers; pulmonary inflammatory cytokine/chemokine levels compared to all other groups of infected mice (hMPV strain C-85473 [5]; day 5 post infection, Luminex): significant reduction in all of the evaluated inflammatory cytokine/chemokine levels

— patent US20140378502A1, “Par1 Inhibitors for Use in the Treatment or Prevention of Paramyxoviridae Infections” (Université Laval, priority 2011, published 2014)
